Counter-ions that a name gives are not always drawn. Like-named read-outs stand apart in the source and are kept apart here.
What was measured:
[1] = Salt screen and crystalline salt characterization; type: physicochemical; settings: for hygroscopicity: ambient temperature and relative humidity conditions, Hemisulfate Salt
Method: High throughput crystallization was employed to screen for the formation of crystalline salts of Compound (I). The screening examined acid type, acid level (equivalents), and/or type of crystallization solvent. Each plate contained 96 well plates (8 rows of 12 columns per plate).
A solution was prepared by dissolving 400 mg of Compound (I) in a mixture of 36 ml THF and 4 mL H2O. The solution ([…]) was transferred to 24 vials. To each vial was added 0.25 M EtOH stock solutions of the following acids:
The content of each vial was transferred to 12 crystallization wells and evaporated to dryness. Upon evaporation, each well was charged with 100 μl of solvent using a robotic liquid handler. The following crystallization solvents were tested: methyl isobutyl ketone (MIBK), ethyl acetate, toluene, THF, acetonitrile, acetone, isopropanol, ethanol, methanol, 1,2-dichloroethylene, isopropanol/water (50:50), and water. Next, the plates were sealed with Teflon septa and subjected to temperature cycling. The plates were maintained at 50° C. for 10 hours and then allowed to cool to room temperature over a period of 14 hours. After the heating/cooling cycle, the contents of the wells were characterized by birefringent imaging. Perceived crystalline hits were further characterized by PXRD analysis.

[2] = Water activity studies between crystalline forms; type: physicochemical
Method: Form P22C: prepared by heating Form H1.5-1 at 60° C. for 2 hours or at 75° C. for 5 minutes.
Form P33: Form H1.5-1 converted to Form P33 between 50° C. and 75° C. in variable temperature PXRD experiment. Also observed after Form H1.5-1 was heated to 105° C. for 5 minutes, or prepared by slurring dry powder Form H1.5-1 in dry EtOH or IPAc. […] Form P35: Prepared from slurry of Form H1.5-1 in dry MeOH under molecular sieves (7% RH). Converted to Form P33 when dried at 60° C. Stability in Water Slurry

[3] = Moisture sorption isotherm; type: physicochemical; settings: for moisture sorption weight gain: 25° C.
Method: Example 1 has moisture sorption weight gains of 0.8 weight % and 2.8 weight % between 25% and 75% relative humidity and 5% and 95% relative humidity, respectively.
Moisture sorption isotherms were collected in a VTI SGA-100 Symmetric Vapor Analyzer using approximately 10 mg of sample. The sample was dried at 60° C. until the loss rate of 0.0005 wt %/min was obtained for 10 minutes. The sample was tested at 25° C. and 3 or 4, 5, 15, 25, 35, 45, 50, 65, 75, 85, and 95% RH. Equilibration at each RH was reached when the rate of 0.0003 wt %/min for 35 minutes was achieved or a maximum of 600 minutes.

[4] = Stability in water slurry; type: physicochemical; settings: room temperature, two days
Method: An aqueous slurry of Example 1 was prepared and stored at room temperature.

[5] = Solid state stability study; type: physicochemical
Method: The solid state stability of Example 1 was tested by exposing samples to various temperature and relative humidity conditions for periods of 1, 2, and 4 weeks.

[6] = Dissolution rate in aqueous medium; type: physicochemical; settings: pH 1 and 5 versus pH 7
Excerpt: The dissolution rate of Compound (I) is dependent on the pH of the aqueous medium. […] The normal pH of the stomach is 1.2 to 1.8 according to […], Clinical Analysis, Chapter 32, in Remington: The Science and Practice of Pharmacy 20th Edition, A. R. Gennaro, editor; 2000, Lippinocott Williams & Wilkins, Baltimore, Md. However, patients often take other medications that can raise the pH of the stomach, including antacids, proton pump inhibitors, and H2-receptor antagonists such as famotidine, which can lower the dissolution rate of Compound (I).

[7] = In vivo pharmacokinetic study in humans with and without famotidine pretreatment; settings: for AUC(0-inf) / Cmax / half-life / Tmax: human, plasma; for AUC(0-inf) / Cmax / half-life / Cl/F: (%); for Tmax: read-out: Tmax Median
Method: An in vivo study was conducted comparing the pharmacokinetics of the free base Compound (I) in humans pretreated with 40 mg of famotidine with non-pretreated humans.
Compound (I) in human EDTA plasma was analyzed using liquid-liquid extraction with uHPLC-MS/MS detection on a Triple Quad 5500 mass spectrometer. The method utilized stable isotope labeled [^13C2, D4]-Compound (I) as the internal standard. After the addition of 50 μL of 100 ng/mL [^13C2, D4]-Compound (I) in MeOH:water (20/80) and of 50 μL 1M NH4OAc containing 4% acetic acid buffer solution to 0.100 mL of each study sample, quality control (QC) sample, and calibration standard, the samples were extracted with 600 μL methyl tert-butyl ether (MTBE) by shaking for 15 min. A 450 μL portion of the organic layer was removed and evaporated to dryness. The residue was reconstituted in 200 μL of the reconstitution solution (30% acetonitrile in 10 mM NH4OAc with 0.01% acetic acid). All liquid transfer steps were performed using a Perkin Elmer JANUS Mini® liquid handler except for the addition of the internal standard solution. A 10 μL aliquot of the extracted sample was injected to uHPLC-MS/MS system. The uHPLC was performed on a LEAP 4X Ultra uHPLC system with LEAP HTC PAL autosampler. Mobile phase A contained 10 mM NH4OAc and 0.01% acetic acid in ACN/water (10:90), and mobile phase B contained 10 mM NH4OAc and 0.01% acetic acid in ACN/water (90:10). Chromatographic separation was achieved on an Acquity® uHPLC BEH C18 column (1.7 μm, 2.1×50 mm) with an isocratic elution from 0-1.5 min consisted of 28% Mobile Phase B for analysis of Compound (I), then with a gradient elution consisted of a linear increase from 28% B to 100% B in 0.1 min, then maintaining it at 100% B for 1.1 min for washing out the column. The gradient was then returned to 28% B within 0.1 min, and maintained at 28% for 0.9 min with a total run time of 3.7 min. The flow rate was 0.6 mL/min and column temperature was maintained at 60° C. condition. Detection was accomplished using an AB Sciex Triple Quad 5500 mass spectrometer in positive ESI with turbo ion spray ionization and using multiple reaction monitoring (MRM) mode. The MRM transitions were m/z 535→256 for Compound (I) and m/z 541→256 for [^13C2, D4]-Compound (I). Data acquisition and quantiation were performed using AB Sciex Analyst® 1.5.1 software. The standard curve, which ranged from 0.500-500 ng/ml for Compound (I), was fitted to a 1/x2 weighted linear regression model. During sample analysis, four levels of analytical quality control (QC) samples representing low, geometric-mean, medium, and high concentrations of Compound (I) prepared in human EDTA plasma were analyzed in 4 replicates at each concentration level for each analytical run. The results from these QC samples were used to accept or reject the analytical runs containing study samples based on the acceptance criteria established a priori for the analysis of Compound (I) in human EDTA plasma.

[8] = 25 RH/60° C. (first line, r9), 2 weeks
[9] = 25 RH/60° C. (first line, r9), 4 weeks
[10] = 25 RH/60° C. (first of three lines printed alike, r9), 1 week
[11] = 25 RH/60° C. (second line, r11), 1 week
[12] = 25 RH/60° C. (second line, r11), 2 weeks
[13] = 25 RH/60° C. (second line, r11), 4 weeks
[14] = 25 RH/60° C. (third line, r13), 1 week
[15] = 25 RH/60° C. (third line, r13), 2 weeks
[16] = 25 RH/60° C. (third line, r13), 4 weeks
[17] = HIL/UV (high-intensity light/ultraviolet), 1 week
[18] = HIL/UV (high-intensity light/ultraviolet), 2 weeks
[19] = humans, 150 mg Compound (I) oral with 40 mg Famotidine pretreatment
[20] = humans, 150 mg Compound (I) oral, no pretreatment
[21] = humans, 150 mg with 40 mg Famotidine relative to no pretreatment

Structure (SMILES): N[C@@H]1c2cccnc2[C@H](OC(=O)N2CCC(n3c(=O)[nH]c4ncccc43)CC2)CC[C@H]1c1cccc(F)c1F [Example 1, (5S,6S,9R)-5-Amino-6-(2,3-difluorophenyl)-6,7,8,9-tetrahydro-5H-cyclohepta[b]pyridin-9-yl-4-(2-oxo-2,3-dihydro-1H-imidazo[4,5-b]pyridin-1-yl) piperidine-1-carboxylate, Hemisulfate Salt]
- hygroscopicity ([1]; listed as Sulfuric acid): low/non-
- hygroscopicity ([1]; listed as hemisulfate salt of Compound (I)): low hygroscopicity
- chemical stability ([1]; crystalline salt): chemically stable
- physical stability ([1]; crystalline salt): physically stable
- relative stability of crystalline forms ([2]; Form H1.5-1 versus Form P22C): more stable at >23% relative humidity
- relative stability of crystalline forms ([2]; Form H1.5-1 versus Form P33): more stable at >23% relative humidity
- moisture sorption weight gain ([3]; between 5% and 95% relative humidity): 2.8 weight %
- moisture sorption weight gain ([3]; between 25% and 75% relative humidity): 0.8 weight %
- hygroscopicity ([3]; moisture sorption isotherm at 25° C.): low or non-hygroscopic
- chemical degradation in aqueous slurry [4]: no significant chemical degradation
- stability of crystalline form in aqueous slurry (PXRD) [4]: stable in the aqueous slurry
- % potency [5, 8]: 96.8%
- % total impurities [5, 8]: 0.27%
- % potency [5, 9]: 96.9%
- % total impurities [5, 9]: 0.27%
- % potency [5, 10]: 94.4%
- % total impurities [5, 10]: 0.27%
- % potency [5, 11]: 95.1%
- % total impurities [5, 11]: 0.27%
- % potency [5, 12]: 98.5%
- % total impurities [5, 12]: 0.27%
- % potency [5, 13]: 97.0%
- % total impurities [5, 13]: 0.27%
- % potency [5, 14]: 101.6%
- % total impurities [5, 14]: 0.28%
- % potency [5, 15]: 102.6%
- % total impurities [5, 15]: 0.27%
- % potency [5, 16]: 110.0%
- % total impurities [5, 16]: 0.27%
- % potency [5, 17]: 100.7%
- % total impurities [5, 17]: 0.27%
- % potency [5, 18]: 96.9%
- % total impurities [5, 18]: 0.27%
- % potency ([5]; Initial): 98.5%
- % total impurities ([5]; Initial): 0.27%
- % potency ([5]; Refrigerated, 1 week): 98.0%
- % total impurities ([5]; Refrigerated, 1 week): 0.29%
- % potency ([5]; Refrigerated, 2 weeks): 96.5%
- % total impurities ([5]; Refrigerated, 2 weeks): 0.27%
- % potency ([5]; Refrigerated, 4 weeks): 105.7%
- % total impurities ([5]; Refrigerated, 4 weeks): 0.27%
- solid state stability ([5]; tested temperature and relative humidity conditions, four weeks of storage): stable under the tested storage conditions

Structure (SMILES): N[C@@H]1c2cccnc2[C@H](OC(=O)N2CCC(n3c(=O)[nH]c4ncccc43)CC2)CC[C@H]1c1cccc(F)c1F [Compound (I), (5S,6S,9R)-5-amino-6-(2,3-difluorophenyl)-6,7,8,9-tetrahydro-5H-cyclohepta[b]pyridin-9-yl-4-(2-oxo-2,3-dihydro-1H-imidazo[4,5-b]pyridin-1-yl)piperidine-1-carboxylate]
- dissolution rate [6]: higher dissolution rate at pH values of 1 and 5 than at a pH value of 7
- AUC(0-inf) [7, 19]: 3060 ng·h/mL
- Cmax [7, 19]: 259 ng/mL
- half-life [7, 19]: 12.6 h
- Tmax [7, 19]: 3 h
- AUC(0-inf) [7, 20]: 7200 ng·h/mL
- Cmax [7, 20]: 991 ng/mL
- half-life [7, 20]: 12 h
- Tmax [7, 20]: 2.5 h
- change in AUC and Cmax ([7]; humans pretreated with 40 mg of famotidine compared to non-pretreated humans): significant reduction
- Cl/F [7, 19]: 49 (28%) L/hr
- Cl/F [7, 20]: 20.84 (75%) L/hr
- F (AUCinf) [7, 21]: 42.5% (96%)
- F (Cmax) [7, 21]: 26.2% (130%)
